Publication PMC10382584, “Macrocyclization of linear molecules by deep learning to facilitate macrocyclic drug candidates discovery” (Nature Communications, 2023)

Columns and labels:
Assay in all cases: biochemical
Design in all cases: DiscoveRx KINOMEscan competition binding, percent of DMSO control signal at 100 nM
Conditions in all cases: read-out: Fig. 4a / Percent Control / Compound 1; percent of DMSO control, competition binding
CSNK1G3 = CSNK1G3 (Homo sapiens, UniProt Q9Y6M4)
CSK = CSK (Homo sapiens, UniProt P41240)
DYRK2 = DYRK2 (Homo sapiens, UniProt Q92630)
NEK6 = NEK6 (Homo sapiens, UniProt Q9HC98)
ARK5 = biological target: T1, ARK5 (Homo sapiens, UniProt O60285)
T1 construct: gene NUAK1

MAST1 = MAST1 (Homo sapiens, UniProt Q9Y2H9)
PRKCD = PRKCD (Homo sapiens, UniProt Q05655)
IKK-beta = biological target: T2, IKK-beta (Homo sapiens, UniProt O14920)
T2 construct: gene IKBKB

EPHA3 = EPHA3 (Homo sapiens, UniProt P29320)
MEK1 = biological target: T3, MEK1 (Homo sapiens, UniProt Q02750)
T3 construct: gene MAP2K1

[1] = biological target: T4, RSK2(Kin.Dom.1-N-terminal) (Homo sapiens, UniProt P51812)
T4 construct: gene RPS6KA3; Kin.Dom.1-N-terminal

PIK3C2B = PIK3C2B (Homo sapiens, UniProt O00750)
AURKB = AURKB (Homo sapiens, UniProt Q96GD4)
MEK5 = biological target: T5, MEK5 (Homo sapiens, UniProt Q13163)
T5 construct: gene MAP2K5

IRAK1 = IRAK1 (Homo sapiens, UniProt P51617)
TAOK2 = TAOK2 (Homo sapiens, UniProt Q9UL54)
HPK1 = biological target: T6, HPK1 (Homo sapiens, UniProt Q92918)
T6 construct: gene MAP4K1

CSNK1D = CSNK1D (Homo sapiens, UniProt P48730)
[2] = biological target: EGFR(L747-S752del, P753S) (Homo sapiens, UniProt P00533, DEL747-752/P753S)
PRKD3 = PRKD3 (Homo sapiens, UniProt O94806)
ULK1 = ULK1 (Homo sapiens, UniProt O75385)
MELK = MELK (Homo sapiens, UniProt Q14680)
NEK7 = NEK7 (Homo sapiens, UniProt Q8TDX7)
NEK10 = NEK10 (Homo sapiens, UniProt Q6ZWH5)
FGFR3(G697C) = FGFR3(G697C) (Homo sapiens, UniProt P22607, G697C)
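Note: KINOMEscan kinase panel binding assay, signal normalized between DMSO as 100% and a positive control compound as 0%.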

NEK7, sequence (Q8TDX7 whole entry): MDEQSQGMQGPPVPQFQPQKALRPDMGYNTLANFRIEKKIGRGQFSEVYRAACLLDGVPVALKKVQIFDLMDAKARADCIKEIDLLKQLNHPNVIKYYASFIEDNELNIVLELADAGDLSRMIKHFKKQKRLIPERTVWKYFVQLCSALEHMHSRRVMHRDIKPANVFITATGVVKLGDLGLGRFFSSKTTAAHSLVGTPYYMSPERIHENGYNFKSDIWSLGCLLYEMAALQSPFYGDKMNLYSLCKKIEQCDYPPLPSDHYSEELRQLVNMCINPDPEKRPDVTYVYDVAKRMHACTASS
CSK, sequence (P41240 whole entry): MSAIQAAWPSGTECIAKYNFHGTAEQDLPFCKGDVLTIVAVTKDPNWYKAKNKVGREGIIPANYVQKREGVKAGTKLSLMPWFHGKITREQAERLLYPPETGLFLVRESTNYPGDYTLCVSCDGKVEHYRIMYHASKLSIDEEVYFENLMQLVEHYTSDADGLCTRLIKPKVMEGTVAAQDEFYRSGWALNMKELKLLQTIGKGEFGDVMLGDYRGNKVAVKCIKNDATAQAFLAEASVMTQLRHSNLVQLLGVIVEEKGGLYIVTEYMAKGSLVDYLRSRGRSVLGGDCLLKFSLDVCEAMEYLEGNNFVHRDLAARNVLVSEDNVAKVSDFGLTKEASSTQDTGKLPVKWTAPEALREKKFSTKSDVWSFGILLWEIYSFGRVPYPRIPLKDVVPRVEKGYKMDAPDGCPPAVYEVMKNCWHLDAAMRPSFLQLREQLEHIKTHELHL
TAOK2, sequence (Q9UL54 whole entry): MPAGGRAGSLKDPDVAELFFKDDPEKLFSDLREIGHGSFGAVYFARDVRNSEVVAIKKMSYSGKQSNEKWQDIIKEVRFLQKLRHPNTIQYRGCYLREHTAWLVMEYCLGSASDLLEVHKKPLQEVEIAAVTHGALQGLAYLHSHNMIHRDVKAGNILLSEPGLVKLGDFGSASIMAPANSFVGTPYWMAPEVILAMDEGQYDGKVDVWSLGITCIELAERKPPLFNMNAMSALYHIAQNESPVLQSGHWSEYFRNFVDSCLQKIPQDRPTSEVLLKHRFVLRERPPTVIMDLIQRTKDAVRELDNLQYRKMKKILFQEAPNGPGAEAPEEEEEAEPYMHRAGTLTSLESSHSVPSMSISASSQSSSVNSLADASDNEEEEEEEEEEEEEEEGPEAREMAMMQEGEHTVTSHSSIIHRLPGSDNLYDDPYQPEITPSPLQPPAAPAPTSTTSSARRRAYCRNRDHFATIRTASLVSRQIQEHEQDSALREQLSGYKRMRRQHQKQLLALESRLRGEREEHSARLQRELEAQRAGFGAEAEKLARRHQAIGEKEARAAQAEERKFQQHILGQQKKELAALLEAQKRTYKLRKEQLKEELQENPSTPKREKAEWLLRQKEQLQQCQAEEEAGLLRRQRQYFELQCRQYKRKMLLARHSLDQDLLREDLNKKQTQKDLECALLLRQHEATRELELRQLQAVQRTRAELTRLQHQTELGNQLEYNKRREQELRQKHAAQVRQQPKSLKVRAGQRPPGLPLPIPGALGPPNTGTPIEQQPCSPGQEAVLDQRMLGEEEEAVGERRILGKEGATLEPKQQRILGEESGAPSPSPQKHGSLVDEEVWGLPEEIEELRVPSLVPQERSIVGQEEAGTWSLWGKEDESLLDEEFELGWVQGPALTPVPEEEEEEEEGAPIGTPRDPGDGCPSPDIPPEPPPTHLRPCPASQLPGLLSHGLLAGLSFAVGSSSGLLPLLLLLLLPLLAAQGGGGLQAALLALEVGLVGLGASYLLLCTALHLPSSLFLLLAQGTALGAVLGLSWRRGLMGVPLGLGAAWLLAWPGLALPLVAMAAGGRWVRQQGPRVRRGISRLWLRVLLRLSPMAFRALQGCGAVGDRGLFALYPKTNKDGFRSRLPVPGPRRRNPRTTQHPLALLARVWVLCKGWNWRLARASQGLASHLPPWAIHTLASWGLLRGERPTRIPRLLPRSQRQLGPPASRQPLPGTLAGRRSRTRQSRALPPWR
T6 sequence (Q92918 whole entry): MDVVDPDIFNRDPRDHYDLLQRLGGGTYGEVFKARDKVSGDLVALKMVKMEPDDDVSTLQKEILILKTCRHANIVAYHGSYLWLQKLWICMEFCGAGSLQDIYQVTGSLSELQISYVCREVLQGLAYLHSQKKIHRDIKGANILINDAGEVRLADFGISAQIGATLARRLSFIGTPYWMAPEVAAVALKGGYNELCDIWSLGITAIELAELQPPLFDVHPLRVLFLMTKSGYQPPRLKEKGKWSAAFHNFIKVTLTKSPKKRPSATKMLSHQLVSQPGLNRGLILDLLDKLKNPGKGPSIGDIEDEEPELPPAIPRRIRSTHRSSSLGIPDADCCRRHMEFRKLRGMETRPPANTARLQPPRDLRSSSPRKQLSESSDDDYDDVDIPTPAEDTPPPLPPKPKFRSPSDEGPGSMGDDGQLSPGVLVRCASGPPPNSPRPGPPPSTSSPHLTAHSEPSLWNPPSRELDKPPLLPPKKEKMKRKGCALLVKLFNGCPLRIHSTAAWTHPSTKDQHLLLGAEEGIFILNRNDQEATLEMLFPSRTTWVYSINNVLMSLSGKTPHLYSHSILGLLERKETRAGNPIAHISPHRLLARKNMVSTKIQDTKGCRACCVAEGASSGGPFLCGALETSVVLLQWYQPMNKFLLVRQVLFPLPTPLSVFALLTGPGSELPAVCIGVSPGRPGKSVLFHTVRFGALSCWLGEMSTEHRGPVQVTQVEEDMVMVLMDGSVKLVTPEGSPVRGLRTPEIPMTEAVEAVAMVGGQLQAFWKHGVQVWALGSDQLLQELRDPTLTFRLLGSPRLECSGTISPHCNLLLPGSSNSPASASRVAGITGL
CSNK1G3, sequence (Q9Y6M4 whole entry): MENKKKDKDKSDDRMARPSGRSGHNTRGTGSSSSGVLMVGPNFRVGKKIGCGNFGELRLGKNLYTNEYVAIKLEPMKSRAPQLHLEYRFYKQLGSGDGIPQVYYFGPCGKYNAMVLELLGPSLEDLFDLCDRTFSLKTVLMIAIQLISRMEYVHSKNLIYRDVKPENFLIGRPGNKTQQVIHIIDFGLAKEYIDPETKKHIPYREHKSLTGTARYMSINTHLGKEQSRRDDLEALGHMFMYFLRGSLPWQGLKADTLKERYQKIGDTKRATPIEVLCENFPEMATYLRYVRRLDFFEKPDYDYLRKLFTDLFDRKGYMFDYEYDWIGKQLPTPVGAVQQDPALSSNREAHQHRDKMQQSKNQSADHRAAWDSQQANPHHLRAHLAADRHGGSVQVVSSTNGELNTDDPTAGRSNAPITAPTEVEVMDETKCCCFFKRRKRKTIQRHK
AURKB, sequence (Q96GD4 whole entry): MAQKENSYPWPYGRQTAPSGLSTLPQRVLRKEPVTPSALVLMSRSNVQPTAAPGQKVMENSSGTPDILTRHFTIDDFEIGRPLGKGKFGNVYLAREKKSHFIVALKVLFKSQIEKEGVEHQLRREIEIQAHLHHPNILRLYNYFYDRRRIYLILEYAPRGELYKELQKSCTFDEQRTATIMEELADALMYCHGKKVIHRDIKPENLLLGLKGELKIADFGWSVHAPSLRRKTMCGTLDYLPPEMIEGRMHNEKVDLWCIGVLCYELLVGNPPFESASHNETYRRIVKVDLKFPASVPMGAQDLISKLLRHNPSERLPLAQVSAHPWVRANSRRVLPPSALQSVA
ULK1, sequence (O75385 whole entry): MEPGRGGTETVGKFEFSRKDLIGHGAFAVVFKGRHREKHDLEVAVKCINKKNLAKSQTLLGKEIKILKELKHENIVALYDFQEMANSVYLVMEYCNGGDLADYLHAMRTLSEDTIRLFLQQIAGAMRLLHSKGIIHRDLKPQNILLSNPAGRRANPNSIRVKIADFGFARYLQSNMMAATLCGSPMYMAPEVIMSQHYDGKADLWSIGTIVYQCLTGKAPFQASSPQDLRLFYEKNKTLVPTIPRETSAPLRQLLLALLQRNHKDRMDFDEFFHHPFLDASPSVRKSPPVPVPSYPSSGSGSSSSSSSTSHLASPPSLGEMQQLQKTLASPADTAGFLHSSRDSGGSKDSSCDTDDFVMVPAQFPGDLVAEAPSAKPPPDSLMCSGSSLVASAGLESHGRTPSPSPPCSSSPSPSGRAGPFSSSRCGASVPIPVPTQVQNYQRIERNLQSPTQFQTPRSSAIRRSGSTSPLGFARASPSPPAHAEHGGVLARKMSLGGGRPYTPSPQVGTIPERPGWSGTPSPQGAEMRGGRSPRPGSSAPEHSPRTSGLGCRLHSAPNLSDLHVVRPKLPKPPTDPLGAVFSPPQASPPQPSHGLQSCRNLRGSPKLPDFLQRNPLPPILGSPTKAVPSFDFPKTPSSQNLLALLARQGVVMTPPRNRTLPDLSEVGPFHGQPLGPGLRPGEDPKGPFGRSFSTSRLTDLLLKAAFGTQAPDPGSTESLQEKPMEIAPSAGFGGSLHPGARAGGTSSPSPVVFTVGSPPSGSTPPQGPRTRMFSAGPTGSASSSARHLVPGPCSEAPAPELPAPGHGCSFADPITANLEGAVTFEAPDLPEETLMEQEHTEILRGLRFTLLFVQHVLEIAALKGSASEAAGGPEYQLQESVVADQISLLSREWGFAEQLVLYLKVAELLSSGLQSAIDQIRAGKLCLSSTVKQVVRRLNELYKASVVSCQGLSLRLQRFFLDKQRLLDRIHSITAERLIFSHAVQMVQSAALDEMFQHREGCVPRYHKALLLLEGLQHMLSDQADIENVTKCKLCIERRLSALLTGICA
NEK6, sequence (Q9HC98 whole entry): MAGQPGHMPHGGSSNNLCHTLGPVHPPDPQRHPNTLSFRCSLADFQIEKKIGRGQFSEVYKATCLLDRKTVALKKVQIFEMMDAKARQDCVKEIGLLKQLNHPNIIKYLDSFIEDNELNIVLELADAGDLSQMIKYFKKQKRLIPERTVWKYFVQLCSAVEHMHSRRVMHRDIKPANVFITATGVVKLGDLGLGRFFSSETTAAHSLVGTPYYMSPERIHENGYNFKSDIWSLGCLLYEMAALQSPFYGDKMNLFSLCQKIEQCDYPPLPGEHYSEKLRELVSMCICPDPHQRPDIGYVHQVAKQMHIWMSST

Cc1cnc2nc1Nc1cccc(c1)COCc1cc(ccc1OCCN1CCCC1)N2 [Compound 1]
remaining binding at 0.1 µM (CSNK1G3): 100% | remaining binding at 0.1 µM (CSK): 100% | remaining binding at 0.1 µM (DYRK2): 90% | remaining binding at 0.1 µM (NEK6): 100% | remaining binding at 0.1 µM (ARK5): 51% | remaining binding at 0.1 µM (MAST1): 94% | remaining binding at 0.1 µM (PRKCD): 100% | remaining binding at 0.1 µM (IKK-beta): 97% | remaining binding at 0.1 µM (EPHA3): 85% | remaining binding at 0.1 µM (MEK1): 77% | remaining binding at 0.1 µM [1]: 56% | remaining binding at 0.1 µM (PIK3C2B): 97% | remaining binding at 0.1 µM (AURKB): 82% | remaining binding at 0.1 µM (MEK5): 22% | remaining binding at 0.1 µM (IRAK1): 31% | remaining binding at 0.1 µM (TAOK2): 63% | remaining binding at 0.1 µM (HPK1): 72% | remaining binding at 0.1 µM (CSNK1D): 100% | remaining binding at 0.1 µM [2]: 80% | remaining binding at 0.1 µM (PRKD3): 100% | remaining binding at 0.1 µM (ULK1): 52% | remaining binding at 0.1 µM (MELK): 100% | remaining binding at 0.1 µM (NEK7): 72% | remaining binding at 0.1 µM (NEK10): 95% | remaining binding at 0.1 µM (FGFR3(G697C)): 94%
